Key:
Assay type in all cases: cell-based, human
MEG-01 cells [1] = assay: Anchorage independence assay in soft agar; settings: 25 μM
Method: Anchorage independence of growth in soft agar assay is an assay for detecting malignant transformation of cells. Anchorage independence is given by defects in the cellular adhesion pathways. Anchorage independence is strongly connected with tumorogenicity and invasiveness. Malignant cells form colonies when grown on soft agar. Normal cells cannot grow on soft agar. Agarose (V3121 from Promega, with melting point at 87-89° C. and gelling point at 36-39° C.) was mixed with MEG-01 growth media RPMI1640 1× with 10% FBS and supplements. A bottom layer of 0.5% makes a firm base, then a top layer of 0.3% agarose with media and over the agarose a layer of growth media was added. Cells were grown in 12 wells dishes at 37° C., 5% CO2, 90% humidity in a VWR incubator. […] This modified image was then transformed into a default threshold image and then colonies were gated and measured.
Referring to FIGS. 2-4, anchorage independence assay in soft agar ([…] and 0.3% top layer agar, with complete MEG-01 cells, growth media) is illustrated. […] The area of each colony was measured using the software NIH Image version 1.63. First the background was subtracted from a gray binary image, then default threshold was applied and then colonies were measured by appropriate gating. 85 colonies from 30 images were measured. […]

[2] = system: αIIbβ3 integrin expression on MEG-01 cells; assay: RPE-CD41a flow cytometric immunophenotyping (maturation)
From the text: CD41a is the antigen for αIIbβ3 complex and it is found on platelets and platelet precursors, including MEG-1 cell line (Ogura et al., 1985; Zunino et al., 2001). It acts as a receptor for fibrinogen, von Willebrand factor, fibronectin, and vitronectin, and it mediates platelet adhesion and aggregation. αIIbβ3 complex is a marker of differentiation for megakaryocytes (as an increase in the fluorescence of stained cells corresponds to more αIIbβ3 receptor expression and differentiation towards platelets production) and it is simply a marker for the platelets. CD41a is conjugated with R-Phytocoerthrin (RPE), in order to be used in flow cytometry experiments. The staining protocol provided by BD Biosciences was followed. Briefly, cells were washed and resuspended in 1×PBS with 0.1% FBS, 0.01% NaN3, and 0.22 μm filtered buffer. Cells were counted and adjusted to be 10^6 cells/ml and 20 μl of RPE-CD41a was used for 180 μl cell suspension.
RPE conjugated stained cells were collected on FL2H channel and gating on populations was done on FSC and SSC logarithmic modes. […]
Regarding FIGS. 16-20, maturation (differentiation) of MEG-01 cells is described. […] Control untreated unstained—plot A, control untreated stained—plot B, 10 μM DMAT—plot C, 25 μM TBB—plot D, 1 nM PMA treatments—plot E. FIG. 18 represents total percentage relative fluorescence for RPE-CD41a immunophenotyping. […]

[3] = system: fibrinogen receptor expression on MEG-01 cells; assay: Fibrinogen-Alexa Fluor 488 binding to MEG-01 cells; settings: 10 μM
Method: RPE conjugated stained cells were collected on FL2H channel and gating on populations was done on FSC and SSC logarithmic modes. The unstained control signal was subtracted from the stained cells signal, in order to measure the staining of the cells without background noise. Similar staining was done for Fibrinogen-Alexa Fluor 488 (300 nM). Cells were collected on FL1H channel and gating on the interest population was done on FSC and SSC logarithmic modes. Again, the unstained control signal was subtracted from the stained cells signal, in order to measure the staining of the cells without background noise.
Regarding FIGS. 16-20, maturation (differentiation) of MEG-01 cells is described. In FIG. 16, RPECD41a (αIIbβ3 expression) staining for DMAT treated cells (gate MEG-01) is depicted, with control untreated unstained—plot A, Control untreated stained (RPE-CD41a)—plot B, DMAT 10 μM—plot D, DMAT 15 μM—plot C, DMAT 20 μM—plot E. For FIG. 17, RPECD41a (αIIbβ3 expression) staining for DMAT, TBB and PMA (gate MEG-01) is shown. Control untreated unstained—plot A, control untreated stained—plot B, 10 μM DMAT—plot C, 25 μM TBB—plot D, 1 nM PMA treatments—plot E. FIG. 18 represents total percentage relative fluorescence for RPE-CD41a immunophenotyping. […]

MEG-01 cells [4] = assay: DNA content assay with PI and RNAase A; settings: 10 μM, 4 days

CN(C)c1nc2c(Br)c(Br)c(Br)c(Br)c2[nH]1 [DMAT, 2-dimethylamino-4,5,6,7-tetrabromo-1H-benzimidazole]
colony sizes versus Control untreated (MEG-01 cells [1]; 85 colonies from 30 images, paired t-test p<0.0001): extremely significant
colony formation in soft agar (MEG-01 cells [1]; observed after one week): do not form colonies at all
maturation level (RPE-CD41a, αIIbβ3 expression) ([2]; 10 μM): very significant maturation levels versus control untreated
maturation level (RPE-CD41a, αIIbβ3 expression) ([2]; 20 μM, compared with 10 μM): slight increase in the maturation level
fibrinogen-Alexa Fluor 488 binding to MEG-01 cells versus untreated controls [3]: bind significantly better fibrinogen-Alexa Fluor 488
ploidy (DNA content) (MEG-01 cells [4]): higher than 2N
